These compounds were tested on P. falciparum 3D7 growth, pLDH absorbance (assay: P. falciparum 3D7 growth inhibition, dose response, strain 3D7 (AID 2305)).

In order of falling IC50:
1. Oc1ccc2[nH]c(-c3ccc(OC(F)(F)F)cc3)nc2c1CNC1CCCC1  1750 nM
2. Cc1ccc(-n2nc(-c3ccccc3)c3cc(C(=O)NCCN)sc32)cc1  1370 nM
3. COc1ccc(CN2CCCN(Cc3cccc(C(=O)Nc4ccc(C)c(F)c4)c3)CC2)cc1  1310 nM
4. CN(C)CCN(C)Cc1ccc(-c2ccc(NC(=O)c3cccc(C#N)c3)cc2)cc1  1270 nM
5. CC[C@H](C)CNC(=O)c1ccnc(-c2ccc(CNCCCc3ccccc3)cc2)c1  1230 nM
6. O=C(NCc1ccc(Cl)cc1)c1ccc(CN2CCCN(Cc3cccc(O)c3)CC2)cc1  1170 nM
7. CN(C)CCCOc1ccccc1CN1CC[C@H](NC(=O)c2ccc(Cl)c(Cl)c2)C1  1110 nM
8. CN1CCC(Oc2ccc(CN3CC[C@H](NC(=O)c4ccc(F)c(F)c4)C3)c3ccccc23)C1 (some centres undefined)  1080 nM
9. Cc1noc(C)c1CN1Cc2ccccc2OC2(CCN(Cc3c[nH]c4cnccc34)CC2)C1  1070 nM
10. Cc1cc(O)c(CNC2CCCCC2)cc1C  1050 nM
11. C=CCn1cc(C2CCN(CCCCNC(=O)c3sc(-c4ccc(C(F)(F)F)cc4)nc3CO)CC2)c2cc(OC)ccc21  1040 nM
12. Cc1c(-c2cccc(CNCCc3ccc(Cl)cc3)c2)cnc(N)c1C  1040 nM
13. O=C(Nc1ccc(Cl)cc1)c1ccc(CN2CCCN(Cc3cccc(F)c3)CC2)cc1  1030 nM
14. CCc1sc(-c2ccc(C(C)(C)C)cc2)nc1C(=O)NCCCN1CCCC1=O  990 nM
15. CCOc1ccc(-c2nonc2NC(=O)CC(C)C)cc1OCC  980 nM
16. CN(C)c1ccc(Br)c(Br)c1  970 nM
17. Cc1ccc(-c2nc(N3CCN(C(=O)c4ccco4)CC3)c3ccccc3n2)cc1  970 nM
18. COc1ccc(CCNCCCCCCNCCc2ccc(-c3ccccc3)cc2)cc1OC  960 nM
19. COc1ccc2nccc(N3CCN(CCNCc4ccc5c(n4)NC(=O)CS5)CC3)c2c1  950 nM
20. CCc1cc(Br)c(CNCCCNc2cc(=O)c3ccccc3[nH]2)s1  950 nM
21. COc1ccc(C(=O)CCC(=O)N(Cc2ccc(-c3ccc(CNCCc4ccc(S(C)(=O)=O)cc4)cn3)cc2)C2C[C@@H]3CC[C@H]2C3)cc1F (some centres undefined)  930 nM
22. Fc1ccc2nc(-c3cccc(-c4ccc(CNCc5cnn(-c6ccccc6)n5)cc4)c3)[nH]c2c1  920 nM
23. Cc1c(C(=O)NCc2ccncc2)sc2nc(-c3cccc([N+](=O)[O-])c3)cn12  910 nM
24. COc1ccc(CNCc2ccsc2)cc1-c1ccc(S(=O)(=O)NCCN2CCCC2)c(C)c1  900 nM
25. CC(=O)c1ccc(-c2ccc(C(=O)NCCCCN3CCC(c4ccc5c(c4OCC(N)=O)CCCC5)CC3)cc2)s1  890 nM
26. O=C(Nc1cccc2ccccc12)N1CCc2cc3nccc(N4CCN5CCC[C@H]5C4)c3cc21  890 nM
27. COc1cccc(NC(=O)Cn2c(C)c(C#N)c3ccccc32)c1  880 nM
28. N=c1c2c(n(Cc3ccccc3)c3c1CCC3)CCCC2  870 nM
29. COc1ccc(NC(=O)NCC2CCCN(CCCCCNC(=O)/C=C/c3ccc(Cl)c(Cl)c3)C2)c(OC)c1 (centres undefined)  860 nM
30. Cc1cccc2[nH]c(-c3cccc(-c4ccc(CN5CCC(C(N)=O)CC5)cc4)c3)nc12  850 nM
31. Cn1cncc1CCN(Cc1ccc(-c2ccc(C(F)(F)F)cc2)cc1)C(=O)Cn1c(CCc2cccc(F)c2F)cc(=O)c2cccnc21  850 nM
32. COC(=O)C(C)(C)c1ccc(CC(C)NCC(O)c2cccc(C(F)(F)F)c2)cc1 (centres undefined)  840 nM
33. Cc1ccc(-c2nc(Nc3ccncc3)c3ccccc3n2)s1  830 nM
34. O=C(C1CC1)N1c2ccccc2CCc2ccccc21  830 nM
35. Nc1nc(Nc2cccc(Cl)c2)ncc1C(=O)NCc1ccncc1  830 nM
36. COc1cccc(Nc2nc(Nc3cccc(C#N)c3)cc(C(F)(F)F)n2)c1  830 nM
37. COc1ccc(NC(=O)NC2CCN(CCCCCNC(=O)/C=C/c3ccc(Cl)c(Cl)c3)C2)c(OC)c1 (centres undefined)  820 nM
38. CN1CCN(c2ccnc3ccc(NC(=O)Nc4ccc(-c5ccncc5)c(C(F)(F)F)c4)cc23)CC1  820 nM
39. Cc1ccc(NC(=O)Nc2ccc(Cl)c(C(F)(F)F)c2)cc1-c1ccc(C(=O)NCCN2CCOCC2)cc1  810 nM
40. CS(=O)(=O)CCNCc1nc(-c2ccc3ncnc(Nc4ccc(OCc5ccccc5)c(Cl)c4)c3c2)cs1  800 nM
41. CN1CCN(c2ccnc3ccc(NC(=O)Nc4cccc(C#N)c4)cc23)CC1  800 nM
42. FC(F)(F)c1cccc(Nc2nc(-c3ccccc3)nc3ncccc23)c1  800 nM
43. O=C(Nc1ccon1)c1cc(-c2cccnc2)nc2ccc(Cl)cc12  790 nM
44. CC(C)CNC(=O)c1ccnc(-c2ccc(CNC3Cc4ccccc4C3)cc2)c1  790 nM
45. COc1cc(-n2cnc3cc(-c4ccc([N+](=O)[O-])cc4)sc3c2=O)ccc1OCCN1CCCC1  780 nM
46. O=C(/C=C/c1ccc(Cl)c(Cl)c1)NCCCCCCN1CCN(C(=O)Nc2cc(Cl)nc(Cl)c2)CC1  780 nM
47. COc1ccc(C(=O)C2CCN(CCCCNC(=O)c3ccc(NC(=O)c4ccc(Cl)cc4)cc3)CC2)c(OC)c1  770 nM
48. CC(C)(C)c1cc(CN2CCN(Cc3ccccc3)CC2)cc(C(C)(C)C)c1O  770 nM
49. O=C(NCCCCN1CCC(C(c2ccccc2)c2ccccc2)CC1)c1ccc(NC(=O)c2ccc(Cl)cc2)cc1  770 nM
50. CCCCCCCN1CC[C@@H](CCCc2ccnc3ccc(OCCN4CCNCC4)cc23)[C@@H](CC)C1  770 nM
51. Cc1cc(NN=Cc2ccccc2Cl)c2cc(F)ccc2n1  750 nM
52. CN(C)CCN(C)Cc1ccc(-c2cccc(-c3nc4ccccc4[nH]3)c2)cc1  750 nM
53. CCOc1ccccc1C(=O)N1CCc2cc3nccc(N4CCN5CCC[C@H]5C4)c3cc21  750 nM
54. c1ccc2[nH]c(-c3ccc(-c4ccc(CN5CCCCC5)cc4)s3)nc2c1  740 nM
55. CS(=O)(=O)Nc1ccc2[nH]cc(C3CCN(CCCCCNC(=O)/C=C/c4ccc(Cl)c(Cl)c4)CC3)c2c1  740 nM
56. CN1CCC(NCc2ccc(S(=O)(=O)Nc3ccc(Oc4cccc(Cl)c4)cc3)cc2)CC1  740 nM
57. CC(O)C1CCCCN1C(=O)c1cccc(-c2ccc(-c3nc4ccc(F)cc4[nH]3)cc2)c1 (centres undefined)  740 nM
58. CCN(CC)CCCC(C)Nc1cc(C)nc2cc(Cl)ccc12 (centres undefined)  730 nM
59. COc1ccc2c(NN=Cc3cccc(Cl)c3)cc(C)nc2c1  730 nM
60. COc1cc(NC(=O)C(c2ccc(Cl)cc2)C(C)C)cc(OC)c1 (centres undefined)  720 nM
61. COc1ccc2c(NN=Cc3cccc(Cl)c3)ccnc2c1  720 nM
62. COC(=O)c1cccc(CNCc2cccc(-c3csc(-c4nc5ccccc5[nH]4)c3)c2)c1  690 nM
63. CCc1ccc(NC(=O)c2ccc(CN3CCCN(Cc4cccc(O)c4)CC3)cc2)cc1  670 nM
64. CC(C)(CNCc1ccc(F)c(F)c1)c1nc(-c2ccc(Cl)c(O)c2)c(-c2ccncc2)[nH]1  660 nM
65. NC(N)=NN=Cc1ccc2c(ccc3ccccc32)c1  630 nM
66. CCc1ccc(NC(=O)c2ccc(CN3CCCN(CCC(C)C)CC3)cc2)cc1  630 nM
67. COc1cc2c(cc1N1CCN(C)CC1)N(C(=O)Nc1ccc(-c3ccncc3)c(Cl)c1Cl)CC2  610 nM
68. CCCCc1ccc(NC(=O)Nc2ccc3c(c2)CCNCC3)cc1  580 nM
69. COc1cc2nc(N3CCC(CNC(=O)c4ccc(-c5ccccc5)cc4)CC3)nc(N)c2cc1OC  570 nM
70. CCNCc1ccc(-c2cccc(-c3nc4ccccc4[nH]3)c2)cc1  550 nM
71. O=C(Nc1ccc(N2CCCCC2)c(Cl)c1)c1ccc(Br)o1  550 nM
72. C=C[C@H]1CN(CCCCCCC)CC[C@H]1CC(=O)Nc1cnnc2ccc(OC)cc12  530 nM
73. Cc1cccc2[nH]c(-c3cccc(-c4cccc(NC(=O)NCc5ccccc5)c4)c3)nc12  520 nM
74. CC(Oc1cccc(Cl)c1)C(=O)N1CCc2ccccc21 (centres undefined)  510 nM
75. O=C(/C=C/c1ccccc1Cl)Nc1ccc(Br)c(OCCN2CCC(O)(c3ccccc3)CC2)c1  480 nM
76. Cc1cc2[nH]c(-c3ccc(C(=O)NCCCN4CCN(c5cccc(Cl)c5)CC4)cc3F)nc2cc1Cl  480 nM
77. CC(Oc1ccc(C(=O)c2ccc(F)cc2)cc1)C(=O)N1CCc2ccccc21 (centres undefined)  410 nM
78. CCN(CC)CCCOc1ccc(Nc2nccc(-c3c(-c4cccc(NC(=O)c5c(F)cccc5F)c4)nn4ccccc34)n2)cc1F  410 nM
79. CCC(C)NS(=O)(=O)c1ccc2nc(Nc3ccc(C)cc3)n([C@H](C)C(C)(C)C)c2c1 (some centres undefined)  390 nM
80. COc1ccc(NC(=O)Nc2ccc(-c3ccccc3)cc2)cc1Cn1nc(Cl)c(N2CCCNCC2)cc1=O  360 nM
81. CC(=O)Nc1ccc(CCNC(C)Cc2ccc(C(=O)Nc3ccc(CC(C)NCCc4cccc(Cl)c4)cc3)cc2)cc1 (centres undefined)  330 nM
82. COc1ccc(-c2cc(C(=O)N3CCc4ccccc43)c3ccccc3n2)cc1OC  330 nM
83. CC(C)C[C@H](NC(=O)c1ccc(OCCN2CCOCC2)cc1)C(=O)N[C@H](/C=N/N(C)C(=O)c1ccccc1)CCc1ccccc1  270 nM
84. CCOC(=O)CCCc1cc(NC2CCN(C)CC2)nc(Nc2ccc(C)cc2)n1  260 nM
85. O=C(Cc1cccs1)NC(CCCN1CCC(Oc2cccc(Cl)c2)CC1)c1ccc(Cl)c(Cl)c1 (centres undefined)  250 nM
86. Cc1cccc(OC(C)C(=O)Nc2cc(C(F)(F)F)ccc2N2CCOCC2)c1 (centres undefined)  240 nM
87. CCNc1cc(C(=O)N[C@@H](Cc2ccccc2)[C@H](O)CNC23CC4CC(CC(C4)C2)C3)cc(N2CCCCS2(=O)=O)c1  220 nM
88. FC(F)(F)c1ccc2nc(-c3ccc(-c4cccc(CNCc5ccccc5)c4)cc3)[nH]c2c1  220 nM
89. Cc1ccn2c(C(=O)N3CCN(c4cccc5c4nc(-c4ccoc4)n5Cc4ccccn4)CC3)c(C)nc2c1  200 nM
90. COc1ccc(C(=O)N2CCC(CN3CCOC(c4ccccc4)(c4ccccc4)C3)CC2)cc1  170 nM
91. NC(CC1CC(=O)N1CC(=O)O)C(=O)O (centres undefined)  160 nM
92. CCCCCc1cc(OC(=O)CCCN(CC)CC)c2c(c1)OC(C)(C)C=C2C1=CCN(Cc2ccc3ccccc3c2)CC1  160 nM
93. c1ccc2[nH]c(-c3ccc(-c4ccc(CNCCc5ccncc5)cc4)s3)nc2c1  160 nM
94. CCn1ccc2c(N3CCCS3(=O)=O)cc(C(=O)N[C@@H](Cc3ccccc3)[C@H](O)CNC3CCCCC3)cc21  140 nM
95. COc1cc(Cc2cnc(N)nc2N)cc(OCCCCC2SC(=O)NC2=O)c1Br (centres undefined)  120 nM
96. Cc1cc2c3c(N)nc(N)nc3ccc2n1C  90 nM
97. CCCc1cc(Cc2cnc(N)nc2N)cc(CCC)c1OCCCCC(=O)OCC  50 nM
98. CC[C@H]1CN2CC[C@H]1C[C@H]2[C@H](O)c1cc(-c2ccc(OC(F)(F)F)cc2)nc2ccc(OC)cc12  50 nM
99. COc1ccc(CCON2C(N)=NC(N)=NC2(C)C)cc1OC  10 nM
